Among the data in ChEMBL document CHEMBL5465560, “Selectivity Literature for EUbOPEN Chemogenomic Library” (2024) are % of inhibition, % of control and dTM values, retold here.

Assay [1] addresses T1, Serine/threonine-protein kinase DCLK2 (Homo sapiens) (UniProt Q8N568).
T1 sequence (whole entry): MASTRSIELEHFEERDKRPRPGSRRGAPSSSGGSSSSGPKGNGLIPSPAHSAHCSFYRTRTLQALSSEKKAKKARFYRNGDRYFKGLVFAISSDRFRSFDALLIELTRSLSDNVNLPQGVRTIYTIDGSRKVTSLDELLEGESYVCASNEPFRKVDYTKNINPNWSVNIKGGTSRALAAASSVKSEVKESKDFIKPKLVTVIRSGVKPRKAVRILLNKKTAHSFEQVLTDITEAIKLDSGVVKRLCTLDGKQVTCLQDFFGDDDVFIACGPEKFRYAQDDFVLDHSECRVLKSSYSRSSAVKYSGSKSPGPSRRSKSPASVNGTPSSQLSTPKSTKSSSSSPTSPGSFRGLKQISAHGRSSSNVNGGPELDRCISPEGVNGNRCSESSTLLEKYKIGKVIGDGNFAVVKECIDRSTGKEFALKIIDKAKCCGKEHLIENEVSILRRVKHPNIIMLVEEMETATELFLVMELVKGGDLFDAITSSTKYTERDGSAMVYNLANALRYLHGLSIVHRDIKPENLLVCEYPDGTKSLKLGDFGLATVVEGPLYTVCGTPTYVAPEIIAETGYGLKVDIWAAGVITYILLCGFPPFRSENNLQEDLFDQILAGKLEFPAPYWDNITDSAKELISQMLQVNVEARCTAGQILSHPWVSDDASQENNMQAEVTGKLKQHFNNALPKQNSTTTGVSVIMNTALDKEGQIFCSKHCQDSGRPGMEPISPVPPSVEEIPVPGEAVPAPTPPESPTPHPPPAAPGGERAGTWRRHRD
Nature of the assay: Selectivity interaction (SelectScreen profiling (Invitrogen)) EUB0000607a DCLK2. The settings on record: at 2 µM.

The target of assay [2] is T2, Serine/threonine-protein kinase Nek5 (Homo sapiens) (UniProt Q6P3R8).
T2 sequence (whole entry): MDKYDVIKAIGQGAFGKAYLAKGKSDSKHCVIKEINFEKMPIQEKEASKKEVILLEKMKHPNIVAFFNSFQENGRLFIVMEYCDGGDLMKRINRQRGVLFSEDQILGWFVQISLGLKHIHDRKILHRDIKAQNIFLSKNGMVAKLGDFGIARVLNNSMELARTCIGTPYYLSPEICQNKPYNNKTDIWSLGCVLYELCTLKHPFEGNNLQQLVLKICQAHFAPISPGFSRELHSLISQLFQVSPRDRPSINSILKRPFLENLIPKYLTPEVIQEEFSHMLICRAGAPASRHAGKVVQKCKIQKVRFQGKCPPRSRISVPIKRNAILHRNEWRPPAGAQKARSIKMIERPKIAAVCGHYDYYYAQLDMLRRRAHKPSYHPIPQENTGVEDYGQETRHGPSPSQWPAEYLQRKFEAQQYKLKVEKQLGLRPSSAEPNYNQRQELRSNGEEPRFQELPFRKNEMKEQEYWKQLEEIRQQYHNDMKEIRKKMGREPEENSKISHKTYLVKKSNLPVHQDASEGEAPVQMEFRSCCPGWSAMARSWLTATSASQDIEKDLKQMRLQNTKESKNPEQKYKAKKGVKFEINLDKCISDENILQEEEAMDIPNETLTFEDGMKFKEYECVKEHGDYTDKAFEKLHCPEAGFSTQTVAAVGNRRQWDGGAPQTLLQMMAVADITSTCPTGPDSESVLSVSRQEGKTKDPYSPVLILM
In words: Selectivity interaction (KinomeScan (DiscoverX)) EUB0000607a NEK5. The settings on record: at 10 µM.

Assay [3] concerns the target Ribosomal protein S6 kinase alpha-4 (Homo sapiens) (UniProt O75676). Nature of the assay: Selectivity interaction (KinomeScan (DiscoverX)) EUB0000311b RPS6KA4. The following applies: at 1 µM.
The target in assay [4] is Serine/threonine-protein kinase mTOR (Homo sapiens, UniProt P42345). In words: Selectivity interaction (KinomeScan (DiscoverX)) EUB0001079a MTOR. The following applies: at 1 µM.
Assay [5] has as its target Muscarinic acetylcholine receptor M5 (Homo sapiens) (UniProt P08912). In words: Selectivity interaction (GPCR panel (PDSP screen)) EUB0001079a CHRM5. The following applies: at 10 µM.
Assay [6] deals with Rho-associated protein kinase 1 (Homo sapiens) (UniProt Q13464). Nature of the assay: Selectivity interaction (KinomeScan (DiscoverX)) EUB0001079a ROCK1. The following applies: at 1 µM.
The target of assay [7] is Serine/threonine-protein kinase 10 (Homo sapiens) (UniProt O94804). Nature of the assay: Selectivity interaction (ActivX KiNativ screen (ex vivo kinase selectivity in human PBMCs)) EUB0001619a STK10. The assay is classed as cell-based. The settings on record: PBMC, at 1 µM.
Serine/threonine-protein kinase 10 (Homo sapiens), sequence (O94804 whole entry, looked up): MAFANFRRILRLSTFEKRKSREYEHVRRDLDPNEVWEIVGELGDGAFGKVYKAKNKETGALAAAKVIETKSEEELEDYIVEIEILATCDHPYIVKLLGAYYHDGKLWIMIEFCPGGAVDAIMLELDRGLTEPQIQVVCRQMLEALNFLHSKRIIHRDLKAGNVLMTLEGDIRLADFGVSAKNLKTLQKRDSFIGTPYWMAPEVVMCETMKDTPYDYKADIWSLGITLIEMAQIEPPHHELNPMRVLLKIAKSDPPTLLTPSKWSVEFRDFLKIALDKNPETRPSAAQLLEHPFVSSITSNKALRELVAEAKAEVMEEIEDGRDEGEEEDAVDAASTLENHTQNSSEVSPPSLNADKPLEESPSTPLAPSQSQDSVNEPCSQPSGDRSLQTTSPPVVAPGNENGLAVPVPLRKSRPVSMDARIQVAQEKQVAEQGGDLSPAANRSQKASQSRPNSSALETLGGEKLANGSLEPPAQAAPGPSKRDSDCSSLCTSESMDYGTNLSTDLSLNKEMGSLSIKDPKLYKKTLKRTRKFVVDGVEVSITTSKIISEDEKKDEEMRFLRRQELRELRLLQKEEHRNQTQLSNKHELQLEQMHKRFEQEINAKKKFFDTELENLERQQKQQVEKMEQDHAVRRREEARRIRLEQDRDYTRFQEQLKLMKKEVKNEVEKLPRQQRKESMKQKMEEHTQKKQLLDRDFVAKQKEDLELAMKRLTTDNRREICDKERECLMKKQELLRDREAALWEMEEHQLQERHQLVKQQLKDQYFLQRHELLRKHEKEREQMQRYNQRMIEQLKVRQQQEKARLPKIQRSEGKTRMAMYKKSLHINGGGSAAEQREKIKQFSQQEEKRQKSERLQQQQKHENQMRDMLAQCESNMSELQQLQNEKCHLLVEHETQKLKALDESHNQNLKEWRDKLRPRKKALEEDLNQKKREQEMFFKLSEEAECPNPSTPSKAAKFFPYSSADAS
The target of assay [8] is Macrophage colony-stimulating factor 1 receptor (Homo sapiens) (UniProt P07333). In words: Selectivity interaction (KinomeScan (DiscoverX)) EUB0000699a CSF1R. The settings on record: at 10 µM.
Macrophage colony-stimulating factor 1 receptor (Homo sapiens), sequence (P07333 whole entry): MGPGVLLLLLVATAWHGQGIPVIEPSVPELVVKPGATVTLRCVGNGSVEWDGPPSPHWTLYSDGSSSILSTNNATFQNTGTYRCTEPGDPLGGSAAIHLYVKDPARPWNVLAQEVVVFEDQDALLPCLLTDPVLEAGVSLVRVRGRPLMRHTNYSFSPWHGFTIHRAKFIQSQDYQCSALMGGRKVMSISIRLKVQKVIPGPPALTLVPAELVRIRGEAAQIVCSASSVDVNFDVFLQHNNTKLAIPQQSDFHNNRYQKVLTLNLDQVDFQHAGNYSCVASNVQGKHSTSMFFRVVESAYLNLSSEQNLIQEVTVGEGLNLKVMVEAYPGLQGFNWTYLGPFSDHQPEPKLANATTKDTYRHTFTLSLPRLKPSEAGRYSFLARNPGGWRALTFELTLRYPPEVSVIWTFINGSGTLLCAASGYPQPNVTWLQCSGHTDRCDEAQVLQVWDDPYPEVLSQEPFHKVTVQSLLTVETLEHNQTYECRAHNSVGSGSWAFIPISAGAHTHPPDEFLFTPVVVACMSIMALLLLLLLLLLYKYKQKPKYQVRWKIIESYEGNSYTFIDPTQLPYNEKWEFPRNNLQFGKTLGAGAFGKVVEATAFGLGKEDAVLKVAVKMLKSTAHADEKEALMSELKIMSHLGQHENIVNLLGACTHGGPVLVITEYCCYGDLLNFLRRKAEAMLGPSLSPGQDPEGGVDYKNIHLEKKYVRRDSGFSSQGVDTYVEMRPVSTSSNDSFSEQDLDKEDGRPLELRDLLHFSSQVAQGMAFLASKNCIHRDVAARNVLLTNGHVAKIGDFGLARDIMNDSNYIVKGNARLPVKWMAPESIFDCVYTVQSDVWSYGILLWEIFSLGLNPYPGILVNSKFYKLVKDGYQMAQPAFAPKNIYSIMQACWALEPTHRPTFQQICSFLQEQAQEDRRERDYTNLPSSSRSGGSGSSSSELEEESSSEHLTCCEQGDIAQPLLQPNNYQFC
In assay [9] the target is Bone morphogenetic protein receptor type-1A (Homo sapiens, UniProt P36894). The following applies: at 10 µM.
Bone morphogenetic protein receptor type-1A, sequence (P36894 whole entry): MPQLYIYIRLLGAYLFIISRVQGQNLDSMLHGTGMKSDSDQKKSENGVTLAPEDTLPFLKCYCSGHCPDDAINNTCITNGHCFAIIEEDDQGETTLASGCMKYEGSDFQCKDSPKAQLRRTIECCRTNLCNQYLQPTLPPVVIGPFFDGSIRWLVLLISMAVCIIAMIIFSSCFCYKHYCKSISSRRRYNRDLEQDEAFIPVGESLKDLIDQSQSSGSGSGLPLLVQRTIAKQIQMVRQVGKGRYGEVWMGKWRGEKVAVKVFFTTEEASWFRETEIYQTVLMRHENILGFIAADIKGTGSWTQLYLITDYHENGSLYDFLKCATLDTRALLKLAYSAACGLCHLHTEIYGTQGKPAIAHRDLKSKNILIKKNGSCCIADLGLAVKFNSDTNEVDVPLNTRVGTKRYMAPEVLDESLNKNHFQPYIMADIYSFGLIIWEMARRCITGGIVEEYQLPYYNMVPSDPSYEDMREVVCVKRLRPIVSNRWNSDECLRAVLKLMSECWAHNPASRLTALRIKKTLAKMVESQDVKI
Assay [10] addresses Mitogen-activated protein kinase kinase kinase 10 (Homo sapiens) (UniProt Q02779). Nature of the assay: Selectivity interaction (KinomeScan (DiscoverX)) EUB0000695a MAP3K10. The following applies: at 100 nM.
The target of assay [11] is Nuclear body protein SP140 (Homo sapiens) (UniProt Q13342). Nature of the assay: Selectivity interaction (Bromodomain panel (DSF asssay)) EUB0000270b SP140.
The target of assay [12] is Myosin light chain kinase, smooth muscle (Homo sapiens, UniProt Q15746). Nature of the assay: Selectivity interaction (KinomeScan (DiscoverX)) EUB0000045b MYLK. The following applies: at 1 µM.
Myosin light chain kinase, smooth muscle, sequence (Q15746 whole entry): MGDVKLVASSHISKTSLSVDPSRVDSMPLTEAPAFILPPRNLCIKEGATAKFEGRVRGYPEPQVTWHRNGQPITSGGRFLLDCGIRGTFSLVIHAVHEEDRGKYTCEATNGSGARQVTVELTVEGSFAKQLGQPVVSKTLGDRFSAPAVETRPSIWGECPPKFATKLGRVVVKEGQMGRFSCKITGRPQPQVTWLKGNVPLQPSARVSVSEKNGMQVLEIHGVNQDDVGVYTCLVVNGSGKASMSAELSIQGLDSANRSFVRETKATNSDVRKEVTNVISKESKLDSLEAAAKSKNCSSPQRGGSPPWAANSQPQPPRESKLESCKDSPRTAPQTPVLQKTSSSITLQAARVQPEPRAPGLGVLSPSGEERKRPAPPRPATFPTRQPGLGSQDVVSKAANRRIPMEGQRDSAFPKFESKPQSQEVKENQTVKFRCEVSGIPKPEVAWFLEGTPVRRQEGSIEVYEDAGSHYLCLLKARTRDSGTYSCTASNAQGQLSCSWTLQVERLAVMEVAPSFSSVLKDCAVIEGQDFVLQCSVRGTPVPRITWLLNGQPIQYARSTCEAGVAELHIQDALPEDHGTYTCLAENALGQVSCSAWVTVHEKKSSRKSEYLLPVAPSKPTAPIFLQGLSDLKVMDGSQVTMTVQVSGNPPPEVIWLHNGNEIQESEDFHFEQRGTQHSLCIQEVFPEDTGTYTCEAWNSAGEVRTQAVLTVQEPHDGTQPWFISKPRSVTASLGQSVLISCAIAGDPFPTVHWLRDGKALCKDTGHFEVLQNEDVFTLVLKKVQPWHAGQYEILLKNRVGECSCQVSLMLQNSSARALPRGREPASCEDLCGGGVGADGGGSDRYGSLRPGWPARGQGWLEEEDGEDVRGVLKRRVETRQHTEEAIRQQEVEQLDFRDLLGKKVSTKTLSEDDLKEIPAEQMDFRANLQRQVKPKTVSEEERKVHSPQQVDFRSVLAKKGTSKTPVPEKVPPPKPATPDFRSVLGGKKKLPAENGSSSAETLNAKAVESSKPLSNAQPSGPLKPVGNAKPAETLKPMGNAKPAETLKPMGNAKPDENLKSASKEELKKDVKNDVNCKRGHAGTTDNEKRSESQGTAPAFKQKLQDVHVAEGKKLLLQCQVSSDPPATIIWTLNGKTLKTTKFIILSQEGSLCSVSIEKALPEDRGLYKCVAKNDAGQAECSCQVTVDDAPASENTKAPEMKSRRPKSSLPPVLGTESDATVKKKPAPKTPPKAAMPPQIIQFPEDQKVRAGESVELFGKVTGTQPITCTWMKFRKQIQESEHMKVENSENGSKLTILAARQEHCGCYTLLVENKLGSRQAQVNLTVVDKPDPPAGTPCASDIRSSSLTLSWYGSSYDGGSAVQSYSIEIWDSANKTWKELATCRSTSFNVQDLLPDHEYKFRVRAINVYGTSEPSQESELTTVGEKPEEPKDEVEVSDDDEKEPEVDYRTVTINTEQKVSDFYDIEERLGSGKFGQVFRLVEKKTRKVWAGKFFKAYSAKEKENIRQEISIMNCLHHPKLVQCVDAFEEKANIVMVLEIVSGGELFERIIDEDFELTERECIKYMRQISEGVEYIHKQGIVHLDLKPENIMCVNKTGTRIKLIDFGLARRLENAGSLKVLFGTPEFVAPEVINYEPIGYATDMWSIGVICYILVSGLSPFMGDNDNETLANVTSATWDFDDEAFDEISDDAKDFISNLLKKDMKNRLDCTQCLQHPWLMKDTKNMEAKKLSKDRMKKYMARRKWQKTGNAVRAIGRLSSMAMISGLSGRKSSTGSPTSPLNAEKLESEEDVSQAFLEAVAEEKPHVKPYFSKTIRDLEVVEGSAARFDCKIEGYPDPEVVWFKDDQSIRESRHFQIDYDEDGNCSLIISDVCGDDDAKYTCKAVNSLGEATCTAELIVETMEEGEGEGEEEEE
The target of assay [13] is Platelet-derived growth factor receptor alpha (Homo sapiens, UniProt P16234). Nature of the assay: Selectivity interaction (Upstate Kinase Profiler service (Millipore)) EUB0000056c PDGFRA. The following applies: at 1 µM.

Molecules are shown by their SMILES.

Muscarinic acetylcholine receptor M5 (Homo sapiens), sequence (P08912 whole entry): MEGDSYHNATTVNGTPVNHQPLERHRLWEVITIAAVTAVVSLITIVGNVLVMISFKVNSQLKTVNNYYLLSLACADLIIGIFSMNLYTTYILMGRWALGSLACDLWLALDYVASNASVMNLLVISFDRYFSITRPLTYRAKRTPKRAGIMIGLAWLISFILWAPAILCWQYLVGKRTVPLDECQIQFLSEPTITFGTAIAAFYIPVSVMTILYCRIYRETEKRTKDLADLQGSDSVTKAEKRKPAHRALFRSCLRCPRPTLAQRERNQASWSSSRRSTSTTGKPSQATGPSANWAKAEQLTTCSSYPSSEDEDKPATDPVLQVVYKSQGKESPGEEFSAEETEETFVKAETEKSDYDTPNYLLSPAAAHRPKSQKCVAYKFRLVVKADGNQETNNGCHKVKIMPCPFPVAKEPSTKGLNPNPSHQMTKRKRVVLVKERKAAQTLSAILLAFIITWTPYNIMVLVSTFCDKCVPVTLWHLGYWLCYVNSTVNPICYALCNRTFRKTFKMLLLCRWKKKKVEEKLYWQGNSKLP

As for `CNC(=O)Nc1ccc(-c2nc(N3CC4CCC(C3)O4)c3cnn(C4CCC5(CC4)OCCO5)c3n2)cc1`, the % of inhibition in [1] was found to be 2%. Also, the % of control in assay [2] worked out at 81%. The compound `CCc1ccccc1C(=O)Nc1n[nH]c2c(C)c(F)c(C3C(C#N)=C(C)N(C)C(C)=C3C#N)cc12` [BAY-3827] gave a % of control in assay [3] of 8.9%. On to `Nc1cnc(N2CCc3cc(S(=O)(=O)Nc4c(F)cc(Cl)cc4F)cc(N4CCCC4=O)c32)nc1` [TP-020n], for which the % of control in assay [4] stood at 100%; in assay [6] it was 96%. Further, the % of inhibition in [5] came to 1.45%. As for `N#Cc1cccc(-c2c[nH]c3ncnc(N4CCOCC4)c23)c1`, the % of inhibition in assay [7] was determined as 60%. Take `CCN(CC)CCCCNc1ncc2cc(-c3cc(OC)cc(OC)c3)c(NC(=O)NC(C)(C)C)nc2n1`: the % of control was found to be 6.6% in assay [8] and 100% in assay [9]. On to `Cc1cc(F)c(C(=O)Nc2cccc(-c3nncn3C(C)C)n2)cc1-n1cnc(C2CC2)c1`, for which the % of control in assay [10] turned out to be 100%. Turning to `Cc1cc(CN)cc(C)c1-c1ncn(C)c1-c1cncn1C`, the dTM in [11] is -1.11 K. With `C=CC(=O)Nc1cc(-n2c(=O)ccc3cnc4ccc(-c5ccc(NS(C)(=O)=O)cc5)cc4c32)ccc1C`, the % of control in assay [12] worked out at 100%.

For the compound `Cc1ccc(-c2ccc3c(ccc4sc5c(c43)NC[C@@H](C)NC5=O)n2)cn1`, the % of inhibition in assay [13] was -24%.
